Assay [1] is described as follows: Binding affinity to amyloid beta (1 to 40) aggregates assessed as change in fluorescence intensity at 10 uM relative to control.
The nature of assay [2]: Apparent binding affinity to amyloid beta (1 to 40) aggregates. To be noted: read-out: Kd(app).
The species named for assay [3] is Mus musculus. Put plainly: Binding affinity to amyloid beta plaque in mouse brain tissue by thioflavin staining-based fluorescence analysis.
Assay [4] is filed under the species Mus musculus. Put plainly: Binding affinity to amyloid beta plaque in APP/PS1 transgenic mouse brain tissue by thioflavin staining-based fluorescence analysis.
Assay [5] concerns the target Amyloid-beta precursor protein (Homo sapiens) (UniProt P05067). Nature of the assay: Binding affinity to unlabeled amyloid beta (1 to 42) expressed in human SH-SY5Y cells at 10 uM after 10 mins thioflavin staining-based by fluorescence microscopic analysis.

pKd: −log10 of the molar value. Calls of active or inactive are those of the source. The calls are words filed in the database; no cut-off is given here.

Chain of Amyloid-beta precursor protein (Homo sapiens) (P05067 whole entry): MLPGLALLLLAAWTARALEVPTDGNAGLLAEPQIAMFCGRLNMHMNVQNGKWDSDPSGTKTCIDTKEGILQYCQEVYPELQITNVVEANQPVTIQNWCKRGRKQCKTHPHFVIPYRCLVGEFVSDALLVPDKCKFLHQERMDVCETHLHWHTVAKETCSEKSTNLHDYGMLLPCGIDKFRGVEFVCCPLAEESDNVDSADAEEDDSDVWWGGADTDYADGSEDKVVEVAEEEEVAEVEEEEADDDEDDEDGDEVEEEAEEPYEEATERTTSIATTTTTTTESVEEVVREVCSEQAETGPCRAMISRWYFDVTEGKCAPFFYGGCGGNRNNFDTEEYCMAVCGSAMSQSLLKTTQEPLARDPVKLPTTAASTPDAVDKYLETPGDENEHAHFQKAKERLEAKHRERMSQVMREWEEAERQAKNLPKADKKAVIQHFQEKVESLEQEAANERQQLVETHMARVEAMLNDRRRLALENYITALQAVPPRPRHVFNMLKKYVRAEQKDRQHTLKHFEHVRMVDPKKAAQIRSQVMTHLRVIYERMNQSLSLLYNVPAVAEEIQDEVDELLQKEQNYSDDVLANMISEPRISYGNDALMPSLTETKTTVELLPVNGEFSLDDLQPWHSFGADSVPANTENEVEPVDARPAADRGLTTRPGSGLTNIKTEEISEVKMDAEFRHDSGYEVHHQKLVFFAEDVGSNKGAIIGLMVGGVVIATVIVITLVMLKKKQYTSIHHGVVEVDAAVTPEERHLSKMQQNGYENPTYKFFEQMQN

`O=c1c(Cl)c(Cl)cnn1/C=C/c1ccc(/C=C\c2ccccc2)cc1`: the fold change (FC) in assay [1] is 2.04. Same read-out and setting: next, `O=c1c(Cl)c(Cl)cnn1/C=C/c1ccc([N+](=O)[O-])cc1`: 2.24; `COc1ccc(OC)c(/C=C/n2ncc(Cl)c(Cl)c2=O)c1`: 3.42. In the case of `COc1ccc(/C=C/n2ncc(Cl)c(Cl)c2=O)cc1`, the fold change (FC) in assay [1] was 19.8. In assay [2], the pKd is 5.59. For `COc1cc(OC)c(OC)cc1/C=C/n1ncc(Cl)c(Cl)c1=O`, in assay [1], the fold change (FC) was 3.95. On to `COC(=O)c1ccc(/C=C/n2ncc(Cl)c(Cl)c2=O)cc1`, for which the fold change (FC) in assay [1] was 2.07. As for `O=c1c(Cl)c(Cl)cnn1/C=C/c1ccc(I)cc1`, the fold change (FC) in assay [1] stood at 5.26. Consider `N#Cc1ccc(/C=C/n2ncc(Cl)c(Cl)c2=O)cc1`, for which the fold change (FC) in assay [1] was determined as 2.94. For `COc1cc(/C=C/n2ncc(Cl)c(Cl)c2=O)cc(OC)c1`, in assay [1], the fold change (FC) worked out at 5.37. On to `COc1cccc(/C=C/n2ncc(Cl)c(Cl)c2=O)c1`, for which, in assay [1], the fold change (FC) is 11.1. Besides, the pKd in assay [2] was 5.46. Turning to `Cc1ccc(/C=C/n2ncc(Cl)c(Cl)c2=O)cc1`, the fold change (FC) in assay [1] was 2.81. Take `O=c1c(Cl)c(Cl)cnn1/C=C/c1ccc(Br)cc1`: the fold change (FC) in assay [1] amounted to 2.12. In the case of `Cc1ccc2c(c1)sc(-c1ccc(N(C)C)cc1)[n+]2C`, the result in assay [3] was inactive. In the case of `O=c1c(Cl)c(Cl)cnn1/C=C/c1ccccc1`, in assay [1], the fold change (FC) came to 4.72.

With `COc1cc(/C=C/n2ncc(Cl)c(Cl)c2=O)cc(OC)c1OC`, the FC in assay [1] was found to be 26.1. Moreover, the pKd in assay [2] was 5.38. `CN(C)c1ccc(/C=C/n2ncc(Cl)c(Cl)c2=O)cc1`: in assay [1], the fold change (FC) is 40.8. Moreover, the pKd in assay [2] was 5.74. The outcome in assay [4] and in assay [5] was Active. For the same molecule, the outcome in assay [3] was inactive. As to `COc1ccc(/C=C/n2ncc(Cl)c(Cl)c2=O)c(OC)c1`, the fold change (FC) in assay [1] was 11.5. The pKd in assay [2] is 5.30. `COc1cccc(/C=C/n2ncc(Cl)c(Cl)c2=O)c1OC`: the fold change (FC) in assay [1] is 15.3. Besides, the pKd in assay [2] is 5.07. For the molecule `O=c1c(Cl)c(Cl)cnn1/C=C/c1cccc([N+](=O)[O-])c1`, in assay [1], the fold change (FC) came out at 2.12. On to `COc1ccc(/C=C/n2ncc(Cl)c(Cl)c2=O)c(OC)c1OC`, for which, in assay [1], the fold change (FC) worked out at 26.8. Moreover, in assay [2], the negative logarithm of the Kd (pKd) was 5.37. As for `O=c1c(Cl)c(Cl)cnn1/C=C/c1ccc(-c2ccccc2)cc1`, in assay [1], the fold change (FC) came to 1.92. With `Nc1ccc(/C=C/n2ncc(Cl)c(Cl)c2=O)cc1`, in assay [1], the fold change (FC) amounted to 12.2. In addition, the pKd in assay [2] was 5.53. Consider `COc1cc(OC)c(/C=C/n2ncc(Cl)c(Cl)c2=O)c(OC)c1`, for which, in assay [1], the fold change (FC) is 11.7. The pKd in assay [2] was 4.76.

Take `O=c1c(Cl)c(Cl)cnn1/C=C/c1ccc(Cl)cc1`: the fold change (FC) in assay [1] was found to be 3.03.

`COc1cccc(OC)c1/C=C/n1ncc(Cl)c(Cl)c1=O`: in assay [1], the fold change (FC) is 4.53. On the same count and under the same terms, the figure for `COc1ccccc1/C=C/n1ncc(Cl)c(Cl)c1=O` is 8.24; for `O=c1c(Cl)c(Cl)cnn1/C=C/c1ccccc1[N+](=O)[O-]` it is 4.12. The same measure, in the same setting: the figure for `O=c1c(Cl)c(Cl)cnn1/C=C/c1ccc(F)cc1` is 5.93; for `COc1ccc(/C=C/n2ncc(Cl)c(Cl)c2=O)cc1OC` it is 3.52.

What is called pKd is the Kd on a negative log10 scale, so that one unit is a factor of ten.

The values are drawn from ChEMBL document CHEMBL2029261 (Bioorg Med Chem Lett, 2012).
